According to ChEMBL document CHEMBL3627609, “A fragment of the Escherichia coli ClpB heat-shock protein is a micromolar melanocortin 1 receptor agonist” (Bioorg Med Chem Lett, 2015):
pEC50: −log10 of the molar value. Activity calls are given as the source filed them. No cut-off for these calls is given here.

Columns and labels:
[1] = molecular target: Melanocortin receptor 3 (Mus musculus) (UniProt P33033); test: Agonist activity at mouse melanocortin 3 receptor expressed in HEK293 cells at 100 uM by AlphaScreen cAMP assay; format: functional, cell-based
Chain of Melanocortin receptor 3 (Mus musculus) (P33033 whole entry): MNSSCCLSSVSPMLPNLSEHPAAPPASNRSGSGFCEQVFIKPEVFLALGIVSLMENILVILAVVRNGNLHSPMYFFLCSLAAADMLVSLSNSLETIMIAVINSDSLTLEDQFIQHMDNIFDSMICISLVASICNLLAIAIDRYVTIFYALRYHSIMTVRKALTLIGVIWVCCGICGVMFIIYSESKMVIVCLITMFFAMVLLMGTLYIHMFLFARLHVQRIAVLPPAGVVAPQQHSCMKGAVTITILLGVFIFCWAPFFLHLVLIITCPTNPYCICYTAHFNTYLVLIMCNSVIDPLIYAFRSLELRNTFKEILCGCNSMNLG

[2] = molecular target: Melanocortin receptor 3 (Mus musculus) (UniProt P33033); test: Antagonist activity at mouse melanocortin 3 receptor expressed in HEK293 cells using NDP-MSH as agonist by Schild analysis; format: cell-based
[3] = molecular target: Melanocyte-stimulating hormone receptor (Mus musculus, UniProt Q01727); test: Agonist activity at mouse melanocortin 1 receptor expressed in HEK293 cells by AlphaScreen cAMP assay; format: functional, cell-based
Chain of Melanocyte-stimulating hormone receptor (Q01727 whole entry): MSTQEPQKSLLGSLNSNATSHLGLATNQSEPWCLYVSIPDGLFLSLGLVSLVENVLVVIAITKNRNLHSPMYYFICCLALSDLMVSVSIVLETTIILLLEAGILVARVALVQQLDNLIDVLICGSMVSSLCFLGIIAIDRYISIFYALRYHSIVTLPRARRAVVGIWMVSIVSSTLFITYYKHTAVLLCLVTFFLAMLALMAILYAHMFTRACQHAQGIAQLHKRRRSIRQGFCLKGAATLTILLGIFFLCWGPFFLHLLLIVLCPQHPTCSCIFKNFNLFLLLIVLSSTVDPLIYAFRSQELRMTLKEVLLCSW

[4] = molecular target: Melanocortin receptor 5 (Mus musculus) (UniProt P41149); test: Agonist activity at mouse melanocortin 5 receptor expressed in HEK293 cells at 100 uM by AlphaScreen cAMP assay; format: functional, cell-based
Chain of Melanocortin receptor 5 (Mus musculus) (P41149 whole entry): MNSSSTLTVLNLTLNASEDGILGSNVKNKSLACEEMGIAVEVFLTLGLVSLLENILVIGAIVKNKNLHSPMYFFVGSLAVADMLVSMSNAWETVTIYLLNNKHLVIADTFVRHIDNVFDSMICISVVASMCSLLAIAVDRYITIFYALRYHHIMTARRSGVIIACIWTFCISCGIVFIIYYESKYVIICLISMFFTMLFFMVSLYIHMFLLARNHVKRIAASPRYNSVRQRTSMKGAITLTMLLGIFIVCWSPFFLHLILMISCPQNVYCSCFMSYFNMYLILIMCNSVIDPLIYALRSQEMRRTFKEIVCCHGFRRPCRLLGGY

[5] = molecular target: Melanocortin receptor 4 (Mus musculus) (UniProt P56450); test: Antagonist activity at mouse melanocortin 4 receptor expressed in HEK293 cells using NDP-MSH as agonist by Schild analysis; format: cell-based
Chain of Melanocortin receptor 4 (Mus musculus) (P56450 whole entry): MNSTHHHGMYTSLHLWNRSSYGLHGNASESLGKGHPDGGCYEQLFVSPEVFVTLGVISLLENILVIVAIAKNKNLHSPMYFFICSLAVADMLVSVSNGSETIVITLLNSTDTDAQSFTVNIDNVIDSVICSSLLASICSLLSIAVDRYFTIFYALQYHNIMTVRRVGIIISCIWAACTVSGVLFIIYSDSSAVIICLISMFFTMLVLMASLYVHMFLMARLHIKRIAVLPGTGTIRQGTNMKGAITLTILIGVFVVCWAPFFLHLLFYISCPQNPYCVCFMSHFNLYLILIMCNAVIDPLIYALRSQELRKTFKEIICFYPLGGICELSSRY

Melanocortin receptor 4 = Melanocortin receptor 4 (Mus musculus, UniProt P56450); test: Agonist activity at mouse melanocortin 4 receptor expressed in HEK293 cells by AlphaScreen cAMP assay; format: functional, cell-based
Chain of Melanocortin receptor 4 (P56450 whole entry): as above

Activity [1]: 30%
inhibition [2]: inactive
pEC50 [3]: 4.39
Activity [4]: 50%
inhibition [5]: inactive
pEC50 (Melanocortin receptor 4): < 4.00
Substance: Ac-EIAEVLARWTGIPV-NH2
